Laboratory results taken from patent publication US12509447B2, “Small molecule compound” (Technoderma Medicines Pte Ltd, priority 2019, dated 2025).

Columns and labels:
Type in all cases: biochemical
[1] = target: T1, JAK3 (Homo sapiens, UniProt P52333); assay: Inhibition of JAK kinase activity, EZ Reader microfluidic phosphorylation of peptide substrate: JAK3; details: JAK3 kinase 1 nM; highest final concentration 10 μM, 1:3 serial dilution, 8 points, duplicates
T1 sequence (P52333 1-1124): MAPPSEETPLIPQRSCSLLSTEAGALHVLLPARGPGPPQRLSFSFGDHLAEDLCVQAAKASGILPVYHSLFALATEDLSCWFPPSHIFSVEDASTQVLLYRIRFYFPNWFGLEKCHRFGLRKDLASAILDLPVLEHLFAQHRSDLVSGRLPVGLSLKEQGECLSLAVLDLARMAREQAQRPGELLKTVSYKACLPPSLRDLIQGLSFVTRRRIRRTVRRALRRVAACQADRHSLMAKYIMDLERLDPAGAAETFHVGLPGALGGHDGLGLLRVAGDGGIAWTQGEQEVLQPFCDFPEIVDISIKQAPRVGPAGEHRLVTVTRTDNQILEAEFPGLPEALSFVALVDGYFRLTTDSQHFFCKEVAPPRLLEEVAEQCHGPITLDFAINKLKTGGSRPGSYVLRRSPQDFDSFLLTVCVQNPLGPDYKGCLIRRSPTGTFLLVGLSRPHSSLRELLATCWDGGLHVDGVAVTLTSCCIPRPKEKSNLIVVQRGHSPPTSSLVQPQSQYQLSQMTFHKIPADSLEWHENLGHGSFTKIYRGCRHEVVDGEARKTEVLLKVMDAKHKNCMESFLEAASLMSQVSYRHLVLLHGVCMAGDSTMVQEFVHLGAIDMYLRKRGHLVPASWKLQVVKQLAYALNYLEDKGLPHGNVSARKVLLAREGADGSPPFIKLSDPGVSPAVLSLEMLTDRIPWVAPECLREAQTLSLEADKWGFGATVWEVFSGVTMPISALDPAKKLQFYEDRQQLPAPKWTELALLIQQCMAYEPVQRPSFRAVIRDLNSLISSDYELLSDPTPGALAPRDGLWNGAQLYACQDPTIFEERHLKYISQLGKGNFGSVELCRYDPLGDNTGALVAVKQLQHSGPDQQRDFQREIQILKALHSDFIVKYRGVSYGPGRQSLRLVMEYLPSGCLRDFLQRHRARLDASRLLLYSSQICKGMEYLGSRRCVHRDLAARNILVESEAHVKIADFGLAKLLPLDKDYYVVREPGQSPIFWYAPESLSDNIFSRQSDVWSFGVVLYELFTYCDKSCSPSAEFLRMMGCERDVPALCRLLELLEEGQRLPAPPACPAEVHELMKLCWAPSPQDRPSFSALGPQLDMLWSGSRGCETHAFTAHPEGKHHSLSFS
Excerpt: (§1) EZ Reader available from PerkinElmer can be used for detecting the phosphorylation of polypeptide substrates catalyzed by kinases. This device is based on microfluidic separation technology, and can directly detect fluorescence labeled substrates and products. The separation step is achieved in a microfluidic chip by controlling the pressure and electric field intensity. In a kinase experiment, the product conversion rate is generally controlled at 20-30%. This biological assay method is used for identifying the inhibitory effect of the compounds on JAK.
(§2) The compound powder was dissolved in DMSO, sealed and stored in a refrigerator at −20° C. The in-house compound Ref1 was used as a positive control for testing of JAK1, JAK2 and Tyk2, and Ref2 was used as a positive control for testing of JAK3.
(§3) • S2.1. 1M HEPES buffer: 0.5M HEPES free acid and 0.5M HEPES sodium salt are weighed, added into ultrapure water for dissolution, brought to a desired volume, filtered and stored in a refrigerator at 4° C. • S2.2. 40 mM ATP solution: dissolved in a 50 mM HEPES buffer solution, prepared into 40 mM, aliquoted, and cryopreserved in a refrigerator at −20° C. • S2.3. 0.5% Tween 20: 100% Tween 20 was diluted with ultrapure water, and stored in a refrigerator at 4° C. • S2.4. 35% bovine serum albumin: a 35% bovine serum albumin solution is prepared in ultrapure water, aliquoted, and stored in a refrigerator at −20° C. • S2.5. 1M dithiothreitol solution: dithiothreitol is formulated into a 1M solution with ultrapure water, aliquoted, and stored in a refrigerator at −20° C. • S2.6. 0.5 mM Jaktide Peptide substrate solution: it is dissolved in 50 mM HEPES to 0.5 mM, aliquoted, and stored in a refrigerator at −20° C. • S2.7. 0.5 mM IRStide Peptide substrate solution: it is dissolved in 50 mM HEPES to 0.5 mM, aliquoted, and stored in a refrigerator at −20° C. • S2.8. Assay Buffer: 20 mM HEPES buffer, pH 7.4, 10 mM magnesium chloride, 0.01% bovine serum albumin BSA, 0.0005% Tween-20, and a 1 mM dithiothreitol solution. • S2.9. Stop Buffer: 180 mM HEPES buffer, 20 mM ethylenediamine tetraacetic acid (EDTA), and 0.2% Coating Reagent 3. • S2.10. Separation Buffer: 100 mM HEPES buffer, 10 mM EDTA, 0.0005% Tween 20, 0.1% Coating Reagent 3, and 1% dimethyl sulfoxide. 3. Experimental Procedures • S3.1. Preparation of compound plate
(§4) The compound is dissolved in dimethyl sulfoxide to 10 mM, a certain volume is taken and diluted to 0.6 mM, 10 μl of the diluted 0.6 mM solution is taken and added into a 384 microplate or 1:3 serial dilution, with a total of 8 concentration points. • S3.2. Compound layout
(§5) • positive control (HPE1): Ref1, final concentration: 10 μM • positive control (HPE1): Ref2, final concentration: 10 μM • negative control (ZPE): DMSO, with a final concentration of 1.6% • Compound: the highest final concentration at 10 μM, 1:3 serial dilution, with 8 concentration points and in duplicates. 4. Experimental operation steps • S4.1. the experimental plate was added with 250 nl of the compound per well with ECHO, and centrifuged at 1,000 rpm for 1 minute; • S4.2. the precipitate was added with 5 μl of the experimental buffer, and shaken for several seconds to fully dissolve the compound; • S4.3. the solution was added with 5 μl of a 3× substrate solution, as well as 5 μl of a 3× kinase solution, and centrifuged at 800 rpm for 1 minute; • S4.4. The final concentrations of JAK1, JAK2, JAK3 and Tyk2 kinases in the reaction system are 20, 1, 1 and 1 nM, respectively. • S4.5. the reaction system is incubated at room temperature, wherein the incubation time of each kinase is different, and there are differences in incubation time of different batches of kinases. • S4.6. When the reaction reaches 20%-30%, the reaction system is added with 15 μl of the stop buffer to terminate the reaction, and centrifuged at 1,000 rpm for 2 minutes. • S4.7. The precipitate was placed onto a EZ Reader for plate reading. • S4.8. […]

[2] = target: JAK2 (Homo sapiens, UniProt O60674); assay: Inhibition of JAK kinase activity, EZ Reader microfluidic phosphorylation of peptide substrate: JAK2; details: JAK2 kinase 1 nM; highest final concentration 10 μM, 1:3 serial dilution, 8 points, duplicates
JAK2, sequence (O60674 whole entry): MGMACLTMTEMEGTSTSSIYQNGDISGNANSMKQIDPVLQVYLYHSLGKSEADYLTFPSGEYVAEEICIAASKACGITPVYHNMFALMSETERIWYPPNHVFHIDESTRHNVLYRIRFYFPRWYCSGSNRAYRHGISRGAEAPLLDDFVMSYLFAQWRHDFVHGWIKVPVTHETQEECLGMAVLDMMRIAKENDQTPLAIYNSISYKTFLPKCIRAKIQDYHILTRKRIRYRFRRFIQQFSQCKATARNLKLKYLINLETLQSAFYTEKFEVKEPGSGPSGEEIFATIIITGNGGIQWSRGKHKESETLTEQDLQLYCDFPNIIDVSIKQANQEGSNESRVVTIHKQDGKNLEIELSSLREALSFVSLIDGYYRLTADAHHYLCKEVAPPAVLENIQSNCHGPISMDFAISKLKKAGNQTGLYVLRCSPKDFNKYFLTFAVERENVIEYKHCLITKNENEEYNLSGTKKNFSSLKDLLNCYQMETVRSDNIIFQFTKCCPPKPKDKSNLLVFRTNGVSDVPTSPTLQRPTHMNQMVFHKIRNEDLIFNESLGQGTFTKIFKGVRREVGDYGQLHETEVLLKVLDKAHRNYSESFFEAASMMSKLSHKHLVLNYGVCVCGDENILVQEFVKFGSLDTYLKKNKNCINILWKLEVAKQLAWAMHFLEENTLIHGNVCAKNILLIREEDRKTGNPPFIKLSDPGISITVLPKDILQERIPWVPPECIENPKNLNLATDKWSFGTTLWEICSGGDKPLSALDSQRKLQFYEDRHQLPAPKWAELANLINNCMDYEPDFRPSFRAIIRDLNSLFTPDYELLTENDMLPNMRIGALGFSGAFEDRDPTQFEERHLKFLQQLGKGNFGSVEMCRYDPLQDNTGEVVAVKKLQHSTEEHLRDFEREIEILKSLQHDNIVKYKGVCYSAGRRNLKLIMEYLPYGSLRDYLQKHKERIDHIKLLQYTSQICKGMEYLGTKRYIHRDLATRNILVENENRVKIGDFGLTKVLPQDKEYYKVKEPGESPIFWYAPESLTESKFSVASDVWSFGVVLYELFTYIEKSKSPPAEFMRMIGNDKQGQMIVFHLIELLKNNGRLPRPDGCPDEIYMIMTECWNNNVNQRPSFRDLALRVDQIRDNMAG
Excerpt: as §1, §2, §3, §4, §5

[3] = target: Tyk2 (Homo sapiens, UniProt P29597); assay: Inhibition of JAK kinase activity, EZ Reader microfluidic phosphorylation of peptide substrate: Tyk2; details: Tyk2 kinase 1 nM; highest final concentration 10 μM, 1:3 serial dilution, 8 points, duplicates
Tyk2, sequence (P29597 whole entry): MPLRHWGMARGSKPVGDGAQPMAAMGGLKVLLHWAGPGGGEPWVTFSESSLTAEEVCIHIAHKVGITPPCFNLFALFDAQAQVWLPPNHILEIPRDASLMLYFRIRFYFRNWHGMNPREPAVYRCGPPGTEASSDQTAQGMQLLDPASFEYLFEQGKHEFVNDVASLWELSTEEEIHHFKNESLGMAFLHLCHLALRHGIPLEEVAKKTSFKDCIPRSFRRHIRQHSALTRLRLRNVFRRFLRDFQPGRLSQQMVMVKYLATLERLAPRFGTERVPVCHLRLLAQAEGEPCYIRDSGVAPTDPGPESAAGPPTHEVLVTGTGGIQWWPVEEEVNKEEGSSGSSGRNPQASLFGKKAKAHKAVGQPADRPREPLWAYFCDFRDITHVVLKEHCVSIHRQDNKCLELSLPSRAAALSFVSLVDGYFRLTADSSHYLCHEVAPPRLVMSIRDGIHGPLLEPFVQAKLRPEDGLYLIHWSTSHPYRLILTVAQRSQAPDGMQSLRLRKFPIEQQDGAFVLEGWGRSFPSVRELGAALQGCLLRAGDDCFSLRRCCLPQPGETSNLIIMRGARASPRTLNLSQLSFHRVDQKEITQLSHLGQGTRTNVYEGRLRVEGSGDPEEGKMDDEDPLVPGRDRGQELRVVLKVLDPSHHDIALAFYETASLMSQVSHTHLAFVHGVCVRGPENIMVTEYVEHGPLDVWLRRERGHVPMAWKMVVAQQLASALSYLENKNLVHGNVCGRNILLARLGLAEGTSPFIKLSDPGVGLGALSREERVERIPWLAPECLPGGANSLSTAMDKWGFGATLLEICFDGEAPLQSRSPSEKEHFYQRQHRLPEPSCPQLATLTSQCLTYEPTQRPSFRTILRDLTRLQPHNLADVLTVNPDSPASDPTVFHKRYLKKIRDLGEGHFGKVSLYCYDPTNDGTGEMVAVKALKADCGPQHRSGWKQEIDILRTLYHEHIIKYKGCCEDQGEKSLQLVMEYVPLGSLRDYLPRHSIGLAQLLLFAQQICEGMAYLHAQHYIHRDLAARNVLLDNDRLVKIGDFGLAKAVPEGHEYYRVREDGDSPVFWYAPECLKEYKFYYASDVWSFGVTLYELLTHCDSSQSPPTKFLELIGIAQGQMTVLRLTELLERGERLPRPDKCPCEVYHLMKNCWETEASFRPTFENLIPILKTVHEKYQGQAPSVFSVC
Procedure, shortened: (§6)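 Microfluidic mobility-shift assay reading fluorescent peptide substrate and product; kinases at 20 nM (JAK1) or 1 nM (JAK2, JAK3, Tyk2) in pH 7.4 HEPES with 10 mM MgCl2, run at room temperature to 20-30% conversion, then stopped with EDTA. Compounds tested from 10 μM top, 1:3 over 8 points in duplicate; IC50 fitted from % conversion.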

[4] = target: JAK1 (Homo sapiens, UniProt P23458); assay: Inhibition of JAK kinase activity, EZ Reader microfluidic phosphorylation of peptide substrate: JAK1; details: JAK1 kinase 20 nM; highest final concentration 10 μM, 1:3 serial dilution, 8 points, duplicates
JAK1, sequence (P23458 whole entry): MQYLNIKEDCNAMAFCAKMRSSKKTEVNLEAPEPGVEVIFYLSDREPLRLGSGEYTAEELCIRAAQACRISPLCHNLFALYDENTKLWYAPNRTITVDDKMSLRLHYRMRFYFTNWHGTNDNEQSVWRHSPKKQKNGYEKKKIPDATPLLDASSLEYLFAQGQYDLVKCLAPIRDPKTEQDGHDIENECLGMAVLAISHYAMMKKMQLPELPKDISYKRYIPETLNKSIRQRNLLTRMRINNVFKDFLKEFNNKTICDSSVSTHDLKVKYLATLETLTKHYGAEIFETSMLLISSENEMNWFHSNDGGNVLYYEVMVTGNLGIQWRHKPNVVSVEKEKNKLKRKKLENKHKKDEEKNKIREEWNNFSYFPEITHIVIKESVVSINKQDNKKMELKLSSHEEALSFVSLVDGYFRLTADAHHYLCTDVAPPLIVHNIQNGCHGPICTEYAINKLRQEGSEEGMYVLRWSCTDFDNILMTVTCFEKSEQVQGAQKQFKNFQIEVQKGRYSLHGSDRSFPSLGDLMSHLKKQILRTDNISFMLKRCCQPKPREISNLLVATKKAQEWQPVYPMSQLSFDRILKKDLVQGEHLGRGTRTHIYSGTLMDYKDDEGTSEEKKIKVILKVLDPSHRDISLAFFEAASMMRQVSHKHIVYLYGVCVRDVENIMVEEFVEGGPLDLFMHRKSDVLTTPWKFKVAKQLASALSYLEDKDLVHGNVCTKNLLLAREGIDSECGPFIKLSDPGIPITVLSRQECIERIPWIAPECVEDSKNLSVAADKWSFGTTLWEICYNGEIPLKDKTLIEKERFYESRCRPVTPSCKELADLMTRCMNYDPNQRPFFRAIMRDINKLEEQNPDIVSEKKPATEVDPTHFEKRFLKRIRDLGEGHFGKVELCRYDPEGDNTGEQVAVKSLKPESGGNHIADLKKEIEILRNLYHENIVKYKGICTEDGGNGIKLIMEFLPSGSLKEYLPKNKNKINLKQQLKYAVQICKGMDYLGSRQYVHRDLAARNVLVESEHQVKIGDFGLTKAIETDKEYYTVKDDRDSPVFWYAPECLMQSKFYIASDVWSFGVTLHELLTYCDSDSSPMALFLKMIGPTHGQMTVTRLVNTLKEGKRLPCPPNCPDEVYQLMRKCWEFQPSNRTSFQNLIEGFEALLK
Procedure, shortened: as §6

Row | SMILES | IC50 [1] | IC50 [2] | IC50 [3] | IC50 [4]
1 | CCS(=O)(=O)N1CC(n2cc(-c3ccnc(Nc4cnn(C)c4)n3)cn2)C1 [TDM-180665, 4-(1-(1-(ethylsulfonyl)azetidin-3-yl)-1H-pyrazol-4-yl)-N-(1-methyl-1H-pyrazol-4-yl)pyrimidin-2-amine] | ≥ 10 µM | 1 to 10 µM | 1 to 10 µM | 1 to 10 µM
2 | CCCS(=O)(=O)N1CC(n2cc(-c3ccnc(Nc4cnn(C)c4)n3)cn2)C1 [TDM-180666, N-(1-methyl-1H-pyrazol-4-yl)-4-(1-(1-(propylsulfonyl)azetidin-3-yl)-1H-pyrazol-4-yl)pyrimidin-2-amine] | ≥ 10 µM | 1 to 10 µM | ≥ 10 µM | ≥ 10 µM
3 | Cn1cc(Nc2nccc(-c3cnn(C4CN(C(=O)C5CC5)C4)c3)n2)cn1 [TDM-180667, cyclopropyl(3-(4-(2-((1-methyl-1H-pyrazol-4-yl)amino)pyrimidin-4-yl)-1H-pyrazol-1-yl)azetidin-1-yl)ketone] | ≥ 10 µM | ≥ 10 µM | ≥ 10 µM | ≥ 10 µM
4 | Cn1cc(Nc2nccc(-c3cnn(C4CN(C(=O)C5CC5(F)F)C4)c3)n2)cn1 (centres unmarked) [TDM-180668, (2,2-difluorocyclopropyl)(3-(4-(2-((1-methyl-1H-pyrazol-4-yl)amino)pyrimidin-4-yl)-1H-pyrazol-1-yl)azetidin-1-yl)ketone] | ≥ 10 µM | ≥ 10 µM | ≥ 10 µM | ≥ 10 µM
5 | Cn1cc(Nc2nccc(-c3cnn(C4CN(C(=O)CC(F)(F)F)C4)c3)n2)cn1 [TDM-180669, 3,3,3-trifluoro-1-(3-(4-(2-((1-methyl-1H-pyrazol-4-yl)amino)pyrimidin-4-yl)-1H-pyrazol-1-yl)azetidin-yl)propan-1-one] | ≥ 10 µM | ≥ 10 µM | ≥ 10 µM | ≥ 10 µM
6 | CCCC(=O)N1CC(n2cc(-c3ccnc(Nc4cnn(C)c4)n3)cn2)C1 [TDM-180670] | ≥ 10 µM | ≥ 10 µM | ≥ 10 µM | ≥ 10 µM
7 | Cn1cc(Nc2nccc(-c3cnn(C4CN(C(=O)CC#N)C4)c3)n2)cn1 [TDM-180671, 3-(3-(4-(2-((1-methyl-1H-pyrazol-4-yl)amino)pyrimidin-4-yl)-1H-pyrazol-1-yl)azetidin-1-yl)-3-oxopropanenitrile] | ≥ 10 µM | ≥ 10 µM | ≥ 10 µM | ≥ 10 µM
8 | Cn1cc(Nc2nccc(-c3cnn(C4CN(C(=O)CO)C4)c3)n2)cn1 [TDM-180672, 2-hydroxy-1-(3(4-(2-((1-methyl-1H-pyrazol-4-yl)amino)pyrimidin-4-yl)-1H-pyrazol-1-yl)azetidin-1-yl)ethanone] | ≥ 10 µM | ≥ 10 µM | ≥ 10 µM | ≥ 10 µM
9 | Cn1cc(Nc2nccc(-c3cnn(C4CCN(C(=O)C5CC5)CC4)c3)n2)cn1 [TDM-180673, cyclopropyl(4-(4-(2-((1-methyl-1H-pyrazol-4-yl)amino)pyrimidin-4-yl)-1H-pyrazol-1-yl)piperidin-1-yl)ketone] | ≥ 10 µM | ≥ 10 µM | ≥ 10 µM | ≥ 10 µM
10 | CCS(=O)(=O)N1CCC(n2cc(-c3ccnc(Nc4cnn(C)c4)n3)cn2)CC1 [TDM-180674, 4-(1-(1-(ethylsulfonyl)piperidin-4-yl)-1H-pyrazol-4-yl)-N-(1-methyl-1H-pyrazol-4-yl)pyrimidin-2-amine] | ≥ 10 µM | 1 to 10 µM | 1 to 10 µM | ≥ 10 µM
11 | CCCS(=O)(=O)N1CCC(n2cc(-c3ccnc(Nc4cnn(C)c4)n3)cn2)CC1 [TDM-180675, N-(1-methyl-1H-pyrazol-4-yl)-4-(1-(1-(propylsulfonyl)piperidin-4-yl)-1H-pyrazol-4-yl)pyrimidin-2-amine] | ≥ 10 µM | 1 to 10 µM | ≥ 10 µM | ≥ 10 µM
12 | CCC(=O)N1CCC(n2cc(-c3ccnc(Nc4cnn(C)c4)n3)cn2)CC1 [TDM-180676, 1-(4-(4-(2-((1-methyl-1H-pyrazol-4-yl)amino)pyrimidin-4-yl)-1H-pyrazol-1-yl)piperidin-1-yl)propan-1-one] | ≥ 10 µM | ≥ 10 µM | ≥ 10 µM | ≥ 10 µM
13 | CCCC(=O)N1CCC(n2cc(-c3ccnc(Nc4cnn(C)c4)n3)cn2)CC1 [TDM-180677, 1-(4-(4-(2-((1-methyl-1H-pyrazol-4-yl)amino)pyrimidin-4-yl)-1H-pyrazol-1-yl)piperidin-1-yl)butan-1-one] | ≥ 10 µM | ≥ 10 µM | ≥ 10 µM | ≥ 10 µM
14 | Cn1cc(Nc2nccc(-c3cnn(C4CCN(C(=O)CC(F)(F)F)CC4)c3)n2)cn1 [TDM-180678, 3,3,3-trifluoro-1-(4-(4-(2-((1-methyl-1H-pyrazol-4-yl)amino)pyrimidin-4-yl)-1H-pyrazol-1-yl)piperidin-1-yl)propan-1-one] | ≥ 10 µM | ≥ 10 µM | ≥ 10 µM | ≥ 10 µM
